{"source": "patent US6428812B1", "about": "“Process for producing granules containing angiotensin-converting enzyme inhibiting peptides” (Calpis Co., Ltd., priority 1999, dated 2002)", "target": "angiotensin-converting enzyme (ACE) (Homo sapiens, UniProt P12821)", "sequence (P12821 30-1306, species assumed)": "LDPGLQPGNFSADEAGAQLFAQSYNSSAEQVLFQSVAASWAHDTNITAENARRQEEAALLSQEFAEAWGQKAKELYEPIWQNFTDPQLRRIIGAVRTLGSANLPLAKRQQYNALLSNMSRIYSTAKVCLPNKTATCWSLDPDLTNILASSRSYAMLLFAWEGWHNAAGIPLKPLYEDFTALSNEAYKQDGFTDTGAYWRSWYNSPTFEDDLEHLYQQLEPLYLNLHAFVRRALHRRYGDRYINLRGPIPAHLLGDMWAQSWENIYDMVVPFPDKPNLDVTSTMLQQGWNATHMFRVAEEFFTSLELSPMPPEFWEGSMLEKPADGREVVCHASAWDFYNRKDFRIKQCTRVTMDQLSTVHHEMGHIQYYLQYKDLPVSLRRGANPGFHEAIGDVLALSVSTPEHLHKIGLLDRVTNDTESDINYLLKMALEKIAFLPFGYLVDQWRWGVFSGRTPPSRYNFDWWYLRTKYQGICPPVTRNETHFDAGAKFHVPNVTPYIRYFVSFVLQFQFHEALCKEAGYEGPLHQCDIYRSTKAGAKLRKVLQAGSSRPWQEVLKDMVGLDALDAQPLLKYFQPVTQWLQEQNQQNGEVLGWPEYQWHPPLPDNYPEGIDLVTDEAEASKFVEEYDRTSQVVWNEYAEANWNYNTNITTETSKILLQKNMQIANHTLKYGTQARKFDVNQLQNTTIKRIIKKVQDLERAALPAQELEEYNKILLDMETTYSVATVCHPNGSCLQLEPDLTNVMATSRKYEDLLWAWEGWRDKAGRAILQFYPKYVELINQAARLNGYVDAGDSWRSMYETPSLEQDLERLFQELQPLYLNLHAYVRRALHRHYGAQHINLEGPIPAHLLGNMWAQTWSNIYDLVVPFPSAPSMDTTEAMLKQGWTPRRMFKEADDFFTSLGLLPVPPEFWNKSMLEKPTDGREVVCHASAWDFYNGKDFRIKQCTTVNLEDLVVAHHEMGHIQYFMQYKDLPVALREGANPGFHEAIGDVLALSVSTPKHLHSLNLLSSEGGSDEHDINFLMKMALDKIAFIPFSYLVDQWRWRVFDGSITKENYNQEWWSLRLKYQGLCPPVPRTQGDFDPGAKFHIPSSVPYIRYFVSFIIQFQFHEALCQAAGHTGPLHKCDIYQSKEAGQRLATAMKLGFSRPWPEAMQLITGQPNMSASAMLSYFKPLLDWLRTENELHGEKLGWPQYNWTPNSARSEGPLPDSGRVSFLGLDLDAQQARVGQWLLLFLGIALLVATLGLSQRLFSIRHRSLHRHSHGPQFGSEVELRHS", "test": "ACE inhibitory activity", "assay_type": "biochemical", "conditions": "ratio IPP versus VPP", "data": [{"substance": "Ile-Pro-Pro [IPP]", "values": [{"measurement": "ACEI activity of IPP relative to VPP", "value": 1.7, "unit": "times"}]}]}
